Test system: SARS-CoV-2
Experiment: microbe, parasite or virus in culture
Settings: Severe acute respiratory syndrome coronavirus 2, Munich 929, Huh-7

SMILES	EC50 [µM]
CC(=O)/C=C/[C@H](C[C@@H]1CCNC1=O)NC(=O)[C@H](CC1CCCCC1)NC(=O)OCc1ccccc1	1.8
CC(=O)/C=C/[C@H](C[C@@H]1CCNC1=O)NC(=O)[C@H](CC1CC1)NC(=O)OCc1ccccc1	1.5
CCCC[C@H](NC(=O)OCc1ccccc1)C(=O)N[C@H](/C=C/C(C)=O)C[C@@H]1CCNC1=O	18.5
